Measurements from paper PMC7321382, “Synthesis and Antibacterial Analysis of Analogues of the Marine Alkaloid Pseudoceratidine” (Molecules, 2020).
In brackets after ≈: the same amount, converted by molar mass.

How the values were obtained:
[1] = system: S. aureus 16207; experiment: Antibacterial MIC, broth microdilution, S. aureus; type: cell-based, Staphylococcus aureus; conditions: Staphylococcus aureus, 16207; Gram-positive; 24 h incubation; highest concentration tested 32 µM
Description: (§1) The MIC was determined using the broth microdilution method. Mueller Hinton (MH) broth base was prepared in milli-Q water, then autoclaved at 120 °C for 1 h before allowing it to cool to room temperature. A single colony of each bacterial strain (E. coli DH5α and S. aureus 16207) was inoculated in MHB and incubated at 37 °C overnight. Overnight cultures were adjusted to 10^6 CFU/mL in MHB according to the McFarland Standard,100 μL of which was further diluted to a total of 10 mL in the media. The stock solutions of the compounds were prepared at 12.8 mM in purified DMSO. The stock solutions were further diluted in milli-Q water to 64 μM in 0.5% DMSO for testing against S. aureus, and 256 μM in 2% DMSO for testing against E. coli. Compounds that were not soluble in these solvent mixtures were further diluted in half to get clear solutions for the bioassay. DMSO is known to have weak antibacterial activity. To exclude the antibacterial effect of DMSO from the results, a solution of 2% DMSO in milli-Q water was used as an additional control in the experiments. The compounds and three controls (the natural product pseudoceratidine 1 for both strains, streptomycin for S. aureus, and polymyxin B for E. coli) then underwent a dilution series. The assay was performed by adding 50 μL of each compound solution at the different concentrations and 50 μL of the diluted bacterial culture to the different wells of a 96-well microtiter plate. The experiments were performed at least thrice and in triplicates. MIC after 24 h of incubation was determined by both visual inspection and absorbance at 600 nm using an EnSpire Multimode plate reader.

[2] = system: E. coli DH5α; experiment: Antibacterial MIC, broth microdilution, E. coli; type: cell-based, Escherichia coli; conditions: Gram-negative, 24 h incubation, highest concentration tested 128 µM, † lower starting concentration due to insolubility; for MIC: Escherichia coli
Description: as §1

Compound | MIC [1] [µM] | MIC [2] [µM] | melting point [°C] | MIC E. Coli [2] [µM]
O=C(NCCCCNC(=O)c1cc(Cl)c(Cl)[nH]1)c1cc(Cl)c(Cl)[nH]1 [Compound 12c] | > 32 | > 64 | > 230 | –
O=C(NCCCNCCNC(=O)c1cc(I)c[nH]1)c1cc(I)c[nH]1 [Compound 16f] | > 32 | > 128 | 178 to 180 | –
O=C(NCCCCNC(=O)c1cc(Cl)c[nH]1)c1cc(Cl)c[nH]1 [Compound 12b] | > 32 | > 64 | > 230 | –
O=C(NCCCNCCCCNCCCNC(=O)c1cc(I)c[nH]1)c1cc(I)c[nH]1 [Compound 19f] | 16 to 32 (≈ 10.2 to 20.5 µg/mL) | > 128 | 173 to 175 | –
CC(C)(C)OC(=O)NCCCNC(=O)c1cc(Cl)c(Cl)[nH]1 [Compound 28c] | > 32 | > 128 | 158 to 160 | –
CN(C)CCCNC(=O)c1cc(Cl)c(Cl)[nH]1 [Compound 27c] | > 32 | > 128 | – | –
O=C(NCCCCNCCCNC(=O)c1ccc[nH]1)c1ccc[nH]1 [Compound 17a] | > 32 | > 128 | – | –
O=C(NCCNCCNC(=O)c1ccc[nH]1)c1ccc[nH]1 [Compound 13a] | > 32 | > 128 | 191 to 193 | –
CN(C)CCCNC(=O)c1ccc[nH]1 [Compound 27a] | > 32 | > 128 | – | –
CC(C)(C)OC(=O)NCCCNC(=O)c1cc(Br)c[nH]1 [Compound 28d] | > 32 | > 128 | – | –
O=C(NCCCCCCNCCCCCCNC(=O)c1cc(Br)c[nH]1)c1cc(Br)c[nH]1 [Compound 15d] | > 32 | > 64 | 178 to 180 | –
CC(C)(C)OC(=O)NCCCNC(=O)c1cc(I)c[nH]1 [Compound 28f] | > 32 | > 128 | 128 to 130 | –
O=C(NCCCNCCCNC(=O)c1cc(Br)c[nH]1)c1cc(Br)c[nH]1 [Compound 14d] | > 32 | > 128 | 73 to 75 | –
CN(C)CCCNC(=O)c1cc(Cl)c[nH]1 [Compound 27b] | > 32 | > 128 | – | –
O=C(NCCCCNC(=O)c1cc(Br)c[nH]1)c1cc(Br)c[nH]1 [Compound 12d] | > 32 | > 64 | > 230 | –
O=C(NCCNCCNC(=O)c1cc(Cl)c(Cl)[nH]1)c1cc(Cl)c(Cl)[nH]1 [Compound 13c] | > 32 | > 64 | > 230 | –
CC(C)(C)OC(=O)NCCCNC(=O)c1cc(Br)c(Br)[nH]1 [Compound 28e] | > 32 | > 128 | – | –
O=C(NCCCCCCNCCCCCCNC(=O)c1cc(Cl)c[nH]1)c1cc(Cl)c[nH]1 [Compound 15b] | > 32 | > 128 | 106 to 108 | –
NCCCNCCNC(=O)c1cc(Br)c(Br)[nH]1 [Compound 23] | > 32 | > 128 | – | –
O=C(NCCCNCCCCNCCCNC(=O)c1cc(Cl)c[nH]1)c1cc(Cl)c[nH]1 [Compound 19b] | > 32 | > 128 | 194 to 195 | –
O=C(NCCNCCNC(=O)c1cc(I)c[nH]1)c1cc(I)c[nH]1 [Compound 13f] | > 32 | > 64 | 193 to 195 | –
O=C(NCCNCCNC(=O)c1cc(Br)c(Br)[nH]1)c1cc(Br)c(Br)[nH]1 [Compound 13e] | > 32 | > 64 | > 230 | –
O=C(NCCCNCCCNCCCNC(=O)c1cc(Cl)c[nH]1)c1cc(Cl)c[nH]1 [Compound 18b] | > 32 | 64 to 128 (≈ 28.4 to 56.8 µg/mL) | – | –
O=C(NCCCNCCCNCCCNC(=O)c1cc(I)c[nH]1)c1cc(I)c[nH]1 [Compound 18f] | 16 to 32 (≈ 10 to 20 µg/mL) | 64 to 128 (≈ 40.1 to 80.2 µg/mL) | 78 to 80 | –
O=C(NCCCNCCCCNCCCNC(=O)c1cc(Br)c[nH]1)c1cc(Br)c[nH]1 [Compound 19d] | 16 to 32 (≈ 8.74 to 17.5 µg/mL) | 64 to 128 (≈ 35 to 69.9 µg/mL) | 173 to 175 | –
CC(C)(C)OC(=O)NCCCNC(=O)c1ccc[nH]1 [Compound 28a] | > 32 | > 128 | 90 to 91 | –
O=C(NCCCCNCCCNC(=O)c1cc(Cl)c[nH]1)c1cc(Cl)c[nH]1 [Compound 17b] | > 32 | > 128 | 80 to 81 | –
O=C(NCCCNCCCNCCCNC(=O)c1ccc[nH]1)c1ccc[nH]1 [Compound 18a] | > 32 | > 128 | – | –

Compound | MIC [1] [µM] | MIC [2] [µM] | melting point [°C] | MIC E. Coli [2] [µM]
O=C(NCCCCNCCCNC(=O)c1cc(I)c[nH]1)c1cc(I)c[nH]1 [Compound 17f] | > 32 | > 128 | 89 to 90 | –
[H]/N=C(/N)N[C@H]1[C@H](O)[C@@H](O)[C@H](O[C@@H]2O[C@@H](C)[C@](O)(C=O)[C@H]2O[C@@H]2O[C@@H](CO)[C@H](O)[C@@H](O)[C@@H]2NC)[C@@H](N/C(N)=N\[H])[C@@H]1O [Streptomycin, streptomycin, reference compound] | 0.625 to 1.25 (≈ 0.363 to 0.727 µg/mL) | – | – | –
O=C(NCCNCCNC(=O)c1cc(Cl)c[nH]1)c1cc(Cl)c[nH]1 [Compound 13b] | > 32 | > 128 | 199 to 201 | –
O=C(NCCNCCNC(=O)c1cc(Br)c[nH]1)c1cc(Br)c[nH]1 [Compound 13d] | > 32 | > 128 | 201 to 203 | –
NCCNCCCNC(=O)c1cc(Br)c(Br)[nH]1 [Compound 24] | > 32 | > 128 | – | –
O=C(NCCCNCCCNCCCNC(=O)c1cc(Br)c[nH]1)c1cc(Br)c[nH]1 [Compound 18d] | 16 to 32 (≈ 8.52 to 17 µg/mL) | 64 to 128 (≈ 34.1 to 68.1 µg/mL) | – | –
CN(C)CCCNC(=O)c1cc(Br)c(Br)[nH]1 [Compound 27e] | > 32 | > 128 | – | –
O=C(NCCCCNC(=O)c1ccc[nH]1)c1ccc[nH]1 [Compound 12a] | > 32 | > 128 | 215 to 216 | –
O=C(NCCCCNC(=O)c1cc(Br)c(Br)[nH]1)c1cc(Br)c(Br)[nH]1 [Compound 12e] | > 32 | > 64 | > 230 | –
NCCCNCCNC(=O)c1cc(Br)c[nH]1 [Compound 21] | > 32 | > 128 | – | –
O=C(NCCCNCCCNC(=O)c1cc(Cl)c[nH]1)c1cc(Cl)c[nH]1 [Compound 14b] | > 32 | > 128 | 78 to 80 | –
polymyxin B [reference compound] | – | – | – | 0.3 to 0.6
O=C(NCCCNCCNC(=O)c1cc(Br)c[nH]1)c1cc(Br)c[nH]1 [Compound 16d] | > 32 | > 128 | 188 to 190 | –
O=C(NCCCCCCNCCCCCCNC(=O)c1cc(I)c[nH]1)c1cc(I)c[nH]1 [Compound 15f] | > 32 | > 64 | 174 to 176 | –
CC(C)(C)OC(=O)NCCCNC(=O)c1cc(Cl)c[nH]1 [Compound 28b] | > 32 | > 128 | – | –
O=C(NCCCNCCCNC(=O)c1cc(I)c[nH]1)c1cc(I)c[nH]1 [Compound 14f] | > 32 | > 128 | 93 to 95 | –
O=C(NCCCCNC(=O)c1cc(I)c[nH]1)c1cc(I)c[nH]1 [Compound 12f] | > 32 | > 64 | – | –
O=C(NCCCCNCCCNC(=O)c1cc(Br)c[nH]1)c1cc(Br)c[nH]1 [Compound 17d] | > 32 | > 128 | – | –
O=C(NCCCNCCNC(=O)c1ccc[nH]1)c1ccc[nH]1 [Compound 16a] | > 32 | > 128 | 69 to 71 | –
NCCNCCCNC(=O)c1cc(Br)c[nH]1 [Compound 22] | > 32 | > 128 | – | –
O=C(NCCCNCCCCNCCCNC(=O)c1ccc[nH]1)c1ccc[nH]1 [Compound 19a] | > 32 | > 128 | 175 to 176 | –
O=C(NCCCCCCNCCCCCCNC(=O)c1ccc[nH]1)c1ccc[nH]1 [Compound 15a] | > 32 | > 128 | 129 to 131 | –
O=C(NCCCNCCCNC(=O)c1ccc[nH]1)c1ccc[nH]1 [Compound 14a] | > 32 | > 128 | 165 to 166 | –
O=C(NCCCNCCNC(=O)c1cc(Cl)c[nH]1)c1cc(Cl)c[nH]1 [Compound 16b] | > 32 | > 128 | 167 to 169 | –
NCCNCCNC(=O)c1ccc[nH]1 [Compound 20] | > 32 | > 128 | – | –
O=C(NCCCCNCCCNC(=O)c1cc(Cl)c(Cl)[nH]1)c1cc(Cl)c(Cl)[nH]1 [Compound 17c] | > 32 | 128 to 256 (≈ 60.1 to 120 µg/mL) | – | –
CN(C)CCCNC(=O)c1cc(Br)c[nH]1 [Compound 27d] | > 32 | > 128 | – | –
